These results are taken from publication PMC12281487, “Discovery and Validation of a Novel Class of Necroptosis Inhibitors Targeting RIPK1” (ACS Chemical Biology, 2025).

What is called IC50 is the concentration that gives 50% inhibition. In general, EC50 refers to the midpoint of the concentration-response curve. A word on the koff: it is the rate constant with which the complex falls apart. A lower koff goes with slow dissociation. The kon is the second-order rate constant of association.

One assay addresses T1, recombinant hRIPK1 (Homo sapiens, UniProt Q13546).
T1 construct: Th (between GST and residue 1); purchased BPS Bioscience 40371
T1 sequence (Q13546 1-327): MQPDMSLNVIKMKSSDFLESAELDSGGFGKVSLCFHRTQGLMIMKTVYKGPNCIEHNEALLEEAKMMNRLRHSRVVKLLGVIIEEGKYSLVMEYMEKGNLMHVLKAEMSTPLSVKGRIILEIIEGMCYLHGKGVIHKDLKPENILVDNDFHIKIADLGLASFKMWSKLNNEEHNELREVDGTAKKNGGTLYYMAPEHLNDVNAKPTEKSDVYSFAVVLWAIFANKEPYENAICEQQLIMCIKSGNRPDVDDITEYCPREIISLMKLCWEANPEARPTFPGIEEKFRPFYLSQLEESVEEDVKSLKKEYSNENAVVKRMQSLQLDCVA
The assay can be described thus: ADP-Glo kinase assay. Format: biochemical. Particulars: for IC50: GST-RIPK1 75 nM. The protocol:
Compound potency and mode of inhibition against RIPK1 kinase activity were determined by using an ADP-Glo kinase assay (Promega). The assay was carried out in accordance with the manufacturer’s protocol. The initial kinase reaction was performed by incubating recombinant hRIPK1 (GST-Th-1-327 from BPS Bioscience ref 40371, 75 nM) with the inhibitor (0–100 μM) and ATP (0–500 μM) for 4 h at 24 °C in kinase assay buffer (50 mM HEPES pH 7.5, 50 mM NaCl, 30 mM MgCl2, 0.5 mg mL^–1 BSA, 0.02% CHAPS, and 4 mM DTT). Following this reaction, ADP-Glo Reagent and Kinase Detection Reagent were successively added and incubated for 1 and 0.5 h at 24 °C, respectively. A […] (kinase assay reaction/ADP-Glo Reagent/Kinase Detection Reagent) volume ratio of the kit’s components was used. Bioluminescence was measured on a Varioskan LUX multimode microplate reader with SkanIt Software. Experiments were conducted in triplicate. Concentration response curves and IC50 values were generated from nonlinear regression fits performed on GraphPad Prism 9.1.1. Additionally, the produced ADP concentration values were divided by the kinase reaction incubation time to calculate reaction velocity values and generate velocity curves. Velocity curves were fitted in Michaelis–Menten model on GraphPad Prism 9.1.1 to calculate the maximum velocity (v max) and Michaelis–Menten constant (K M) parameters.
For orientation: ADP-Glo turns the ADP formed in a reaction into a luminescent signal.

For assay [1], the system named is I2.1 FADD–/– human Jurkat cells. The assay can be described thus: IncuCyte necroptosis assay in I2.1 cells. Particulars: Homo sapiens, Jurkat, read-out: EC50 (95% CI), necroptosis inhibition.
Protocol: A cell-based assay was established to monitor necroptosis in I2.1 cells using the IncuCyte S3 live cell microscopy platform (Figure S1a). Necroptosis was induced by treatment with TNF, and Sytox Green was used to monitor membrane permeabilization over time as an indicator of progressive necroptotic cell death (Figure S1b–d), allowing determination of the EC50 of candidate necroptosis inhibitors.
I2.1 cells were seeded in a sterile 96-well plate (Greiner) at 20,000 cells per well and incubated at 37 °C overnight. The cells were treated with a final concentration of 600 pM TNF, 1 μM Sytox Green, and compounds in a dose-dependent manner. Wells containing TNF and Sytox Green served as positive control. Wells containing DMSO and Sytox Green served as a negative control. The plate was placed into an IncuCyte S3 Live Cell Analysis System (Sartorius) and readings for phase and green fluorescence were taken every hour for 24 h, with 4 images per well. The images were analyzed with IncuCyte 2021C software and the Green Integrated Intensity Per Image/Phase Area Per Image (GCU × μm^2/image/μm^2/image or GP) was exported. The background at t = 0 h was subtracted, and the linear slope (t = 3–7 h) was calculated by plotting GP against time. The percent inhibition of necroptosis was determined by normalizing to the positive and negative controls and graphing against the [compound]. EC50 values were determined using Prism 10 for each replicate, which were then used to calculate the geometric mean EC50 and associated 95% CIs.
I2.1 cells in a 96-well plate were treated with TNF to induce necroptosis, a dilution series of the candidate necroptosis inhibitor and Sytox Green to monitor cell death. Plates were placed in the IncuCyte® and imaged every hour for 24 h. Cell death was measured over time and used to determine the proportion of necroptotic cells compared to those without necroptosis induction or not treated with an inhibitor. The linear portion of the graph was used to determine an initial rate for calculation of the EC50. TNF with Sytox Green and Sytox Green alone were used as positive and negative controls, respectively. […] EC50 values are expressed as the geometric mean with a 95% confidence interval (CI) of at least three biological replicates.
The test system of another assay is C57BL/6J mice. The assay can be described thus: TNF-induced SIRS murine model. Particulars: 5 mg/kg i.v. 15 min before TNF 0.5 mg/kg i.v., 3 mice per group.
A further assay deals with T2, kinase domain of RIPK1 (Homo sapiens, UniProt Q13546).
T2 construct: recombinant human kinase domain of RIPK1 [RIPK1 (8-322)-Avi-His]; His (C); made in house; host or cells: Sf21 insect cells (baculovirus, Bac-to-Bac), co-expressed with Cdc37
T2 sequence (Q13546 8-322): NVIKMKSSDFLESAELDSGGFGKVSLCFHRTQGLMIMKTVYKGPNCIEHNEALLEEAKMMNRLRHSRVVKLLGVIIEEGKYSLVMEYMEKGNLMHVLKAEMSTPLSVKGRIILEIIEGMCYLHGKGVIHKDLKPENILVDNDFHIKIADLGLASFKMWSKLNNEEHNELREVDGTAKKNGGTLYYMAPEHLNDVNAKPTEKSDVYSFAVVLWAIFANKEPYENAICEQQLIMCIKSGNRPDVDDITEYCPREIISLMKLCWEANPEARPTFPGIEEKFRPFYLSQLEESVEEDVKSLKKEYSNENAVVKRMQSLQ
The assay can be described thus: SPR binding assay. The protocol: Biotinylated recombinant human kinase domain of RIPK1 [RIPK1 (8-322)-Avi-His] was produced in Sf21 cells using baculovirus infection (Bac-to-Bac system, Thermo Fisher Scientific). Briefly, the RIPK1 (8-322)-Avi-His baculovirus was inoculated into Sf21 cells at 1.5 × 10^6 cells/mL, with 1 mL of virus added per 500 mL of cells for P2 virus generation. The cells were grown at 27 °C, 140 rpm for 72 h. RIPK1 was co-expressed with Cdc37 at a 4:1 (RIPK1/Cdc37) v/v virus ratio in Sf21 cells by inoculation with P2 virus (25 mL per 500 mL bottle). The cells were grown at 27 °C while shaking at 140 rpm for 48 h before being harvested by centrifugation at 6500 rpm and 4 °C for 15 min and stored at −80 °C before further purification. 25 μM of Nec-1s (ab221984, Abcam) was added to the culture medium at time of viral infection to stabilize protein.
Briefly, RIPK1 kinase domain was immobilized on a streptavidin-coated sensor chip (Cytiva). The surface was washed with 10 mM NaOH, 1 M NaCl, followed by immobilization of the protein. […] The reference spot was treated as described, omitting the injection of RIPK1. Compound concentration series was injected over the immobilized protein in increasing concentrations using multi cycle or single cycle kinetics in running buffer (10 mM HEPES, 150 mM NaCl, 0.05% Tween20, 0.1% DMSO, pH 7.4). A 1:1 Langmuir interaction model was fitted to the experimental traces, enabling determination of k on, k off, and K D.
In general terms: Surface plasmon resonance follows binding to a sensor surface in real time, without labels.

Protocol for C57BL/6J mice: Male C57BL/6J mice of 18–25 g were used at the age of 6–8 weeks. Three animals were included in each experimental group. All animal experiments were carried out with the permission of the local animal ethical committee in accordance with the EU Directive (2010/63/EU), Portuguese laws (DL113/2013, 2880/2015, 260/2016), and all relevant legislations. Animals received humane care in a temperature-controlled environment with a 12 h light–dark cycle and ad libitum access to pelleted chow and water, complying with the Institute’s guidelines, and as outlined in the “Guide for the Care and Use of Laboratory Animals” prepared by the National Academy of Sciences and published by the National Institutes of Health (NIH publication 86-23 revised 1985). […] TNF was diluted in sterile PBS. […] All injections were administered intravenously (i.v.).

Turning to `CN1C(=O)C(Cc2c[nH]c3ccccc23)NC1=S` (centres unmarked) [Nec-1, Necrostatin 1], the IC50 at recombinant hRIPK1 (ATP concentration 10 μM) stood at 2700 nM. The IC50 on recombinant hRIPK1 (ATP concentration 500 μM) came out at 8100 nM. Also, the “mode of inhibition with respect to ATP” value at recombinant hRIPK1 (ATP concentrations 10–500 μM) is on record as “competition with ATP”. Besides, the half-maximal effective concentration (EC50) in assay [1] is 750 nM. For the same compound, in the assay on C57BL/6J mice, the “protection from TNF-induced mortality (survival)” value is listed as “partially protected”. For the same compound, on kinase domain of RIPK1 (1:1 fitting, 20 °C), the koff is 0.011 ± 0.002 s⁻¹ and the kon was determined as 260000 M⁻¹ s⁻¹. Further, the Kd at kinase domain of RIPK1 (absence of Nec-1, read-out: Binding affinity (pKD) (converted)) is 44.7 nM.
